Where two headings read alike, the source gives them in different places.
Key:
Type in all cases: cell-based, human
SMN2 mRNA = assay: Splicing RT-qPCR gene panel, SMN2 canonical junction (CJ) mRNA; conditions: Homo sapiens, Tables 4A/4B, read-out: SMN2 (IC50, decrease in CJ mRNA, gene panel)
Summary of the method: (§1)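 Canonical-junction mRNA levels were quantified by RT-qPCR in lysates, using ΔΔCt against a housekeeping gene (GAPDH, GUSB or PPIA) and DMSO wells, expressed as percentage response. Cells (A673 or K562) had been exposed for 24 h at 37° C. to 11 three-fold compound concentrations up to 10 uM, DMSO ≤0.25%.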

HTT mRNA [1] = assay: Splicing RT-qPCR assay, HTT canonical (CJ) and alternative (AJ) junction mRNA; conditions: Homo sapiens
Summary of the method: (§2)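 Canonical (CJ) and alternative-exon (AJ) junction mRNAs quantified by one-step RT-qPCR in cell lysates, normalized to housekeeping PPIA for A673 and GAPDH or GUSB for K562. Cells were exposed 24 h at 37 °C to 11-point 3-fold compound series from 10 uM final, with DMSO at or below 0.25%.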

HTT mRNA [2] = assay: Splicing RT-qPCR gene panel, HTT canonical junction (CJ) mRNA; conditions: Homo sapiens, Tables 4A/4B, read-out: HTT (IC50, decrease in CJ mRNA, gene panel)
Summary of the method: as §1

MYB mRNA = assay: Splicing RT-qPCR assay, MYB canonical (CJ) and alternative (AJ) junction mRNA; conditions: Homo sapiens
Summary of the method: as §2

Target C mRNA = assay: Splicing RT-qPCR gene panel, Target C canonical junction (CJ) mRNA; conditions: Homo sapiens, Tables 4A/4B, read-out: Target C (IC50, decrease in CJ mRNA, gene panel)
Summary of the method: as §1

[3] = 24 h, A673 or K562 cells, 24 hours compound treatment, read-out: HTT CJ (IC50, decrease in canonical junction mRNA)
[4] = A673 or K562 cells, 24 hours compound treatment, read-out: HTT AJ (AC50, increase in alternative junction mRNA)
[5] = 24 h, A673 or K562 cells, 24 hours compound treatment, RT-qPCR, read-out: MYB AJ (AC50, increase in alternative junction mRNA)
[6] = 24 h, A673 or K562 cells, 24 hours compound treatment, RT-qPCR, read-out: MYB CJ (IC50, decrease in canonical junction mRNA)
[7] = Tables 4A/4B, canonical junction qPCR panel, read-out: MYB (IC50, decrease in CJ mRNA, gene panel)

IC50 (SMN2 mRNA) [µM] | IC50 (HTT mRNA [1]; [3]) [µM] | IC50 (HTT mRNA [2]) [µM] | IC50 (MYB mRNA; [6]) [µM] | IC50 (MYB mRNA; [7]) [µM] | IC50 (Target C mRNA) [µM] | IC50 (HTT mRNA [1]; Table 3B, canonical junction mRNA, read-out: HTT CJ (IC50, decrease in CJ mRNA)) [µM] | IC50 (MYB mRNA; Table 3B, canonical junction mRNA, RT-qPCR, read-out: MYB CJ (IC50, decrease in CJ mRNA)) [µM] | Structure (SMILES) | AC50 (HTT mRNA [1]; [4]) [µM] | AC50 (MYB mRNA; [5]) [µM] | AC50 (HTT mRNA [1]; Table 3B, alternative junction mRNA, read-out: HTT AJ (AC50, increase in AJ mRNA)) [µM] | AC50 (MYB mRNA; Table 3B, alternative junction mRNA, RT-qPCR, read-out: MYB AJ (AC50, increase in AJ mRNA)) [µM]
< 0.1 | 1 to 10 | 1 to 10 | 0.1 to 1 | 0.1 to 1 | > 10 |  |  | Cc1cn2cc(NC(=O)c3ccc(N4CC(C)(C)NC(C)(C)C4)c4cn(C)nc34)cc(F)c2n1 [Compound 274] | > 10 | 0.1 to 1 |  | 
< 0.1 | < 0.1 | < 0.1 | < 0.1 | < 0.1 | 0.1 to 1 |  |  | COc1c(NC(=O)c2ccc(N3CCNCC3)c3cn(C)nc23)cn2cc(C)nc2c1F [Compound 343, N-{8-fluoro-7-methoxy-2-methylimidazo[1,2-a]pyridin-6-yl}-2-methyl-4-(piperazin-1-yl) indazole-7-carboxamide] | < 0.1 | < 0.1 |  | 
< 0.1 | 0.1 to 1 | 0.1 to 1 | < 0.1 | < 0.1 | > 10 |  |  | Cc1cn2cc(NC(=O)c3c(F)cc(N4CCC(N(C)C)C4)c4cn(C)nc34)cc(F)c2n1 (stereo in doubt) [Compound 463, 4-[(3R)-3-(dimethylamino)pyrrolidin-1-yl]-6-fluoro-N-{8-fluoro-2-methylimidazo[1,2-a]pyridin-6-yl}-2-methylindazole-7-carboxamide] | 0.1 to 1 | < 0.1 |  | 
< 0.1 |  | < 0.1 |  | < 0.1 | 0.1 to 1 | < 0.1 | < 0.1 | Cc1cn2cc(NC(=O)c3ccc(N4CCNCC4)c4cc(C)nn34)cc(F)c2n1 [Compound 940] |  |  | 0.1 to 1 | < 0.1
< 0.1 | 1 to 10 | > 10 | < 0.1 | 0.1 to 1 | > 10 |  |  | CCn1cc2c(N3CC[C@H](NC)C3)ccc(C(=O)Nc3cc(F)c4nc(C)cn4c3)c2n1 [Compound 437, (S)-2-ethyl-N-(8-fluoro-2-methylimidazo[1,2-a]pyridin-6-yl)-4-(3-(methylamino)pyrrolidin-1-yl)-2H-indazole-7-carboxamide] | 1 to 10 | < 0.1 |  | 
< 0.1 | 1 to 10 | 1 to 10 | 0.1 to 1 | 0.1 to 1 | > 10 |  |  | Cc1cn2cc(NC(=O)c3ccc(N4CCNCC4)c4cn(C)nc34)cc(C)c2n1 [Compound 238] | 1 to 10 | 0.1 to 1 |  | 
< 0.1 | 1 to 10 | 1 to 10 | < 0.1 | < 0.1 | > 10 |  |  | Cc1cn2cc(NC(=O)c3ccc(N4CC[C@@H](N(C)C)C4)c4cn(C)nc34)cc(F)c2n1 (single isomer, unassigned) [Compound 350, 4-[3-(dimethylamino)pyrrolidin-1-yl]-N-{8-fluoro-2-methylimidazo[1,2-a]pyridin-6-yl}-2-methylindazole-7-carboxamide] | 1 to 10 | < 0.1 |  | 
< 0.1 | 0.1 to 1 | 0.1 to 1 | 0.1 to 1 | 0.1 to 1 | 0.1 to 1 |  |  | Cc1cn2cc(NC(=O)c3ccc(N4CCC(N5CCCC5)C4)c4cn(C)nc34)cc(F)c2n1 (centres unmarked) [Compound 272] | 0.1 to 1 | < 0.1 |  | 

Structure (SMILES) | IC50 (SMN2 mRNA) [µM] | IC50 (HTT mRNA [1]; [3]) [µM] | IC50 (HTT mRNA [2]) [µM] | IC50 (MYB mRNA; [6]) [µM] | IC50 (MYB mRNA; [7]) [µM] | IC50 (Target C mRNA) [µM] | IC50 (HTT mRNA [1]; Table 3B, canonical junction mRNA, read-out: HTT CJ (IC50, decrease in CJ mRNA)) [µM] | IC50 (MYB mRNA; Table 3B, canonical junction mRNA, RT-qPCR, read-out: MYB CJ (IC50, decrease in CJ mRNA)) [µM] | AC50 (HTT mRNA [1]; [4]) [µM] | AC50 (MYB mRNA; [5]) [µM] | AC50 (HTT mRNA [1]; Table 3B, alternative junction mRNA, read-out: HTT AJ (AC50, increase in AJ mRNA)) [µM] | AC50 (MYB mRNA; Table 3B, alternative junction mRNA, RT-qPCR, read-out: MYB AJ (AC50, increase in AJ mRNA)) [µM]
CCn1cc2c(N3C[C@H]4CC[C@@H](C3)N4)ccc(C(=O)Nc3cc(F)c4nc(C)cn4c3)c2n1 [Compound 289, 4-[(1R,5S)-3,8-diazabicyclo[3.2.1]octan-3-yl]-2-ethyl-N-{8-fluoro-2-methylimidazo[1,2-a]pyridin-6-yl}indazole-7-carboxamide] | < 0.1 | 1 to 10 | 1 to 10 | 0.1 to 1 | 0.1 to 1 | > 10 |  |  | > 10 | 0.1 to 1 |  | 
Cn1cc2c(N3CCNCC3)ccc(C(=O)Nc3cn[nH]c3)c2n1 [Compound 270] | > 10 | > 10 | > 10 | > 10 | > 10 | > 10 |  |  | > 10 | > 10 |  | 

Source: patent publication US20250154169A1, “COMPOUNDS AND METHODS FOR MODULATING SPLICING” (REMIX THERAPEUTICS INC., priority 2021, published 2025)
